Entries after “also recorded” stand apart in the source; their conditions may differ. Where two headings read alike, the source gives them in different places. Marks after values point to notes of the source that are not given here.
What was measured:
[1] = up to 10 µM; cited from earlier work
human MAO B = target: T1, human MAO B (Homo sapiens, UniProt P27338); assay: fluorometric Monoamine Oxidase assay; format: biochemical; details: for inhibition at 1 µM: read-out: hMAO B %Inh. (converted)
T1 construct: purchased Sigma Aldrich M7441
T1 sequence (P27338 1-520): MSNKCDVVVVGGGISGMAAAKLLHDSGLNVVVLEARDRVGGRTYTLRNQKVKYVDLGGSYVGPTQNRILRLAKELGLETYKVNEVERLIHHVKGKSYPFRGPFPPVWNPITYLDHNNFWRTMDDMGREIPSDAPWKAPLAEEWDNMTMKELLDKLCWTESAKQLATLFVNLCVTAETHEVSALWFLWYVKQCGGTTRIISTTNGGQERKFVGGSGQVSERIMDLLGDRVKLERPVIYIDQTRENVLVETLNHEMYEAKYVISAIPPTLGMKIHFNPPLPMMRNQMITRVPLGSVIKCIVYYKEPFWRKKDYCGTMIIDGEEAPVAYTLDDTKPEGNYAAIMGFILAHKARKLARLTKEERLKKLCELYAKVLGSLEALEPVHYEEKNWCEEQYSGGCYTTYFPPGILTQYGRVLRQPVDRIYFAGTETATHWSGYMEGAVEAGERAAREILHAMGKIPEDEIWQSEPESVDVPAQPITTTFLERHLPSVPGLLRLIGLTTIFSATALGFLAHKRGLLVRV
Experimental: Inhibition of human MAO B (hMAO B) was evaluated using a fluorometric Monoamine Oxidase assay as we described previously.
Inhibition of hMAO B was evaluated using fluorometric Monoamine Oxidase assay as described by Łażewska et al.. Recombinant MAO B was purchased from Sigma Aldrich (M7441). […] The assay was carried out in 96-well plate. Tested compounds dissolved in DMSO (1 μM) were added to wells that contained 98 µL of enzyme dilution (1 µg/well) in phosphate buffer (50 mM, pH 7.4). […] An enzymatic reaction started following addition of para-tyramine solution (200 μM). […] Each experiment was performed in duplicate.

eqBuChE = target: T2, eqBuChE (Equus caballus, UniProt P81908); assay: kinetic studies of eqBuChE inhibition; format: biochemical; details: for type of eqBuChE inhibition: Lineweaver–Burk and Cornish–Bowden plots, substrate butyrylthiocholine
T2 construct: AChE was obtained from electric eel and BuChE from equine serum; purchased Sigma Aldrich; host or cells: equine serum (natural source)
T2 sequence (P81908 whole entry): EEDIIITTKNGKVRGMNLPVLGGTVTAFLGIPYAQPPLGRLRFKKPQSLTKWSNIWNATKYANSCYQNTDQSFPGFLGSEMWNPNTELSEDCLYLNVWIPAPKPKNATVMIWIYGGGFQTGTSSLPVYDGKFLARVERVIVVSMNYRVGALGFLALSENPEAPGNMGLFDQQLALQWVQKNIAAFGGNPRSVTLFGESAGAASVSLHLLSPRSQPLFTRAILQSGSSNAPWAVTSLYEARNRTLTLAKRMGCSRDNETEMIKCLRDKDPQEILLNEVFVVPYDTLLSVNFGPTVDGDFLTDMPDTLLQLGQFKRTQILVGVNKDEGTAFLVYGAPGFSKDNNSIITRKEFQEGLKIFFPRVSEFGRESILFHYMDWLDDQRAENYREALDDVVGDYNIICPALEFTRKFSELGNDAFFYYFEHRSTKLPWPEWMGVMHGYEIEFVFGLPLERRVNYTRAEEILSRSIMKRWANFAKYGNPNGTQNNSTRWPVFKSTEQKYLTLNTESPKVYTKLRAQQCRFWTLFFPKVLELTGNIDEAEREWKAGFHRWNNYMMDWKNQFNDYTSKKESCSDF
Experimental: Moreover, the dissociation constant (Ki), describing the binding affinity between the inhibitor and the enzyme, was determined.
EqBuChE stock solution was diluted with demineralized water prior to use, giving the final concentration of 0.027 U/mL in the wells. […] For each concentration of the target compound, all six BTC solutions were utilized to perform the assays. Vmax and Km values of the Michaelis−Menten kinetics were calculated by nonlinear regression from substrate−velocity curves. Lineweaver-Burk and Cornish-Bowden plots were calculated using linear regression in GraphPad Prism 5 (GraphPad Software, San Diego, CA, USA). Each experiment was performed in triplicate.

histamine receptors: H1 = details: cited from earlier work
[2] = previous in vitro studies; cited from earlier work
BuChE from equine serum [3] = target: T3, BuChE from equine serum (Equus caballus, UniProt P81908); assay: eqBuChE inhibition, Ellman's method; format: biochemical
T3 construct: AChE was obtained from electric eel and BuChE from equine serum; purchased Sigma Aldrich; host or cells: equine serum (natural source)
T3 sequence (P81908 whole entry): as above
Experimental: The inhibitory activities of the tested compounds against cholinesterases were evaluated by Ellman’s method. AChE was obtained from electric eel and BuChE from equine serum. […] Inhibitory activities of the tested compounds against cholinesterases were measured using a spectrophotometric method modified for 96-well microplates as described recently.
First, all compounds were screened at the concentration of 10 μM. […] Then, the percent of inhibition of tested enzymes for each compound was calculated. […] Each concentration was measured in triplicate. All calculations were made using nonlinear regression GraphPad Prism 5 (GraphPad Software, San Diego, CA, USA).

[4] = tested on: mouse model of scopolamine-induced memory impairments; assay: step-through Passive Avoidance Task; format: in vivo; details: mice
Experimental: This procedure was created for studying short-term memory as well as long-term memory. The paradigm requires the rodents to behave contrary to their innate preference for dark areas and for avoiding bright ones.
The experiments were carried out on adult male Albino Swiss mice (CD-1, 18–25 g). […] Experimental groups consisted of 6–12 animals, all the animals were used only once and they were killed by cervical dislocation immediately after the assay. Behavioral measures were scored by trained observers, which were blind to experimental conditions. Treatment of laboratory animals in the present study was in full accordance with the respective Polish regulations.
Control animals (negative control) were given an appropriate amount of vehicle (1% aqueous solution of Tween 80; i.p.) 30 min before the test.
The task was performed according to the method described previously. Briefly, the test was conducted in the apparatus with two compartments (LE872, Bioseb, France). The illuminated white compartment (20 cm × 21 cm × 20 cm, 1000 lx) was separated by an automated sliding gate with the smaller dark compartment (7.3 cm × 7.5 cm × 14 cm, 10 lx) equipped with an electric grid floor. For acquisition session, mice were first placed individually in the white compartment and after 30 s the gate to the smaller compartment was opened. Immediately after entering into the dark compartment, the gate was closed and the mouse was punished by an unavoidable electric foot shock (0.8 mA for 2 s). […] Next day (24 h later), the pretested animals were placed again into the bright compartment. […] The latency time to cross through the gate between the compartments was measured.

AChE from electric eel [5] = target: T4, AChE from electric eel (Electrophorus electricus, UniProt O42275); assay: eeAChE inhibition, Ellman's method; format: biochemical; details: for inhibition at 10 µM: read-out: eeAChE % Inh.
T4 construct: AChE was obtained from electric eel and BuChE from equine serum; purchased Sigma Aldrich; host or cells: electric eel (natural source)
T4 sequence (O42275 24-633): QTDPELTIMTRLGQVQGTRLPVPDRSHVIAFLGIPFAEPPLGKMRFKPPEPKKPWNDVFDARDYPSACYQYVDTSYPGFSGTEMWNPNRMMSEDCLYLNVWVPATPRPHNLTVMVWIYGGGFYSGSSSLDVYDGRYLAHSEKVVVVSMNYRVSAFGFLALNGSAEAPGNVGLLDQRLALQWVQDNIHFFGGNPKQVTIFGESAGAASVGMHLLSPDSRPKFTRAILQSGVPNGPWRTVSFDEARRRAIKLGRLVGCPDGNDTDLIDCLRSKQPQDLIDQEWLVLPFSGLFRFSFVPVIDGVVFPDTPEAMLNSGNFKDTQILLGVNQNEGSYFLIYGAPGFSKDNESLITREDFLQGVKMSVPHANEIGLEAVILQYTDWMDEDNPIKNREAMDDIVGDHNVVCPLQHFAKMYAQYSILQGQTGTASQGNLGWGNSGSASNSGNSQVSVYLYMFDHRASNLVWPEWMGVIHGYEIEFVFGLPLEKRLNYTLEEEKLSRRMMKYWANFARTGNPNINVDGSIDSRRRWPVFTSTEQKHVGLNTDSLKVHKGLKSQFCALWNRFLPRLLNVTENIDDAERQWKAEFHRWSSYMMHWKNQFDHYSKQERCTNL
Experimental: The inhibitory activities of the tested compounds against cholinesterases were evaluated by Ellman’s method. AChE was obtained from electric eel and BuChE from equine serum. Donepezil and rivastigmine were used as reference compounds. […]. Inhibitory activities of the tested compounds against cholinesterases were measured using a spectrophotometric method modified for 96-well microplates as described recently.
[…]. First, all compounds were screened at the concentration of 10 μM. The changes in absorbance were measured at 412 nm, using a microplate reader (EnSpire Multimode; PerkinElmer, Waltham, MA, USA). Then, the percent of inhibition of tested enzymes for each compound was calculated. […] Each concentration was measured in triplicate. All calculations were made using nonlinear regression GraphPad Prism 5 (GraphPad Software, San Diego, CA, USA).

histamine receptors: H4 = details: cited from earlier work
[6] = target: human butyrylcholineserase; details: read-out: hBuChE IC50; cited from earlier work
[7] = target: Fatty Acid Amide Hydrolase from rat brain membranes; details: read-out: rFAAH IC50; cited from earlier work
[8] = target: human acetylcholinesterase; details: read-out: hAChE IC50; cited from earlier work
BuChE from equine serum [9] = target: T3, BuChE from equine serum; details: cited from earlier work
AChE from electric eel [10] = target: T4, AChE from electric eel; details: cited from earlier work; for IC50: AChE from electric eel, read-out: eeAChE IC50 Mean ± SEM; for eeAChE % Inh.: at 10 μM
[11] = target: T5, human histamine H3 receptor (Homo sapiens, UniProt Q9Y5N1); details: cited from earlier work; for Ki: read-out: hH3R Ki Mean ± SD [CI 95%], [3H]Nα-methylhistamine, HEK293 cells stably expressing human H3R
T5 construct: expressed in transfected cells; host or cells: HEK293
T5 sequence (Q9Y5N1 whole entry): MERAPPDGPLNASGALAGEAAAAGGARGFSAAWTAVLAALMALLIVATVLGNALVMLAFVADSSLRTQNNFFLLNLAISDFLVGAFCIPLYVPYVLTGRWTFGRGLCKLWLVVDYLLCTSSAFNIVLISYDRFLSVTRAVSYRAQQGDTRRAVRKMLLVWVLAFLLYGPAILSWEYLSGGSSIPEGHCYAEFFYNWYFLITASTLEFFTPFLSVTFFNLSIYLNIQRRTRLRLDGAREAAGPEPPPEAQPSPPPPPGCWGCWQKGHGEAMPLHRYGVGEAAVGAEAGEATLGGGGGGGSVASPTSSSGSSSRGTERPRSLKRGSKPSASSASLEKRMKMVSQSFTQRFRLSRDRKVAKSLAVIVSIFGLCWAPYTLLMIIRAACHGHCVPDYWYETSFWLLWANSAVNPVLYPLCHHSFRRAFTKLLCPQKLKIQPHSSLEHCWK

hH3R = details: cited from earlier work
[12] = read-out: eqBuChE IC50 Mean ± SEM
[13] = BuChE from equine serum, read-out: eqBuChE IC50 Mean ± SEM

c1ccc(-c2ccc(OCCCCCN3CCCCCC3)cc2)cc1 [Compound 19, 1-(5-([1,1′-biphenyl]-4-yloxy)pentyl)azepane]
mutagenic activity [1]: no mutagenic activity
IC50 (human MAO B): 243 ± 73 nM
inhibition at 1 µM (human MAO B): 54%
type of eqBuChE inhibition (eqBuChE): mixed type of enzyme inhibition; also recorded: mixed mode of enzyme inhibition
Ki (histamine receptors: H1): 1300 nM
blood–brain barrier crossing [2]: crosses the blood–brain barrier (BBB)
IC50 (BuChE from equine serum [3]): 590 ± 10 nM
latency time, retention trial ([4]; 1.25 mg/kg i.p. before scopolamine 1 mg/kg): 93.5 ± 17.4 s
latency time, retention trial ([4]; 2.5 mg/kg i.p. before scopolamine 1 mg/kg): 119.1 ± 21.2 s
latency time, retention trial ([4]; 5.0 mg/kg i.p. before scopolamine 1 mg/kg): 129.8 ± 17.8 s
activity in retention trial ([4]; 10 mg/kg i.p. before scopolamine 1 mg/kg): lower activity
effect on scopolamine-induced memory deficits ([4]; Passive Avoidance Task, listed as 19 (E153)): effectively alleviated memory deficits caused by scopolamine; also recorded: reversed memory impairments induced by scopolamine
latency times, acquisition trial ([4]; i.p.): neither scopolamine, nor 19 nor rivastigmine significantly affected latency times
inhibition at 10 µM (AChE from electric eel [5]): 44%
Ki (histamine receptors: H4): 21800 nM

O=C(NCCCCCc1ccccc1)Oc1cccc(Cn2cc(COc3ccc4ccc(=O)oc4c3)nn2)c1 [Compound 2]
IC50 [6]: 43 nM
IC50 [7]: 28 nM
IC50 [8]: 922 nM

CC1CCN(CCCCCCOc2ccc(-c3ccccc3)cc2)CC1 [Compound 4]
inhibition at 1 µM (human MAO B): 27%
IC50 (BuChE from equine serum [9]; [12]): 740 ± 20 nM
IC50 (AChE from electric eel [10]): 4460 ± 100 nM
eeAChE % Inh. (AChE from electric eel [10]): more than 50%

CNCCc1cnc[nH]1 [[^3H]N^α-methylhistamine, reference compound]
Kd ([11]; hH3R stably expressed in HEK293 cells, read-out: KD of radioligand at hH3R): 3.08 nM

C#CCN(C)Cc1cc2cc(OCCCN3CCCCC3)ccc2n1C [contilisant]
IC50 [6]: 1690 nM
IC50 [8]: 530 nM
Ki (hH3R): 11 nM

Cc1[nH]c2ccccc2c1CC(=O)NCCC1CCN(Cc2ccccc2)CC1 [Compound 1]
IC50 [6]: 1.09 nM
IC50 [8]: 7270 nM

c1ccc(-c2ccc(OCCCCCCN3CCCCCC3)cc2)cc1 [Compound 5]
inhibition at 1 µM (human MAO B): 45%
type of eqBuChE inhibition (eqBuChE): non-competitive type of eqBuChE inhibition
Ki (eqBuChE; replot of Lineweaver–Burk data, read-out: dissociation constant (Ki) for eqBuChE): 652 nM
IC50 (BuChE from equine serum [9]; [12]): 600 ± 10 nM
IC50 (AChE from electric eel [10]): 2760 ± 40 nM
eeAChE % Inh. (AChE from electric eel [10]): more than 50%

c1ccc(-c2cccc(OCCCCCCN3CCCCC3)c2)cc1 [Compound 9]
inhibition at 1 µM (human MAO B): 16%
IC50 (BuChE from equine serum [3]; [13]): 1780 ± 80 nM
inhibition at 10 µM (AChE from electric eel [5]): 35%
Ki [11]: 149 ± 108 nM

CC1CCN(CCCCCCOc2cccc(-c3ccccc3)c2)CC1 [Compound 17]
inhibition at 1 µM (human MAO B): 5%
IC50 (BuChE from equine serum [3]; [13]): 1490 ± 40 nM
inhibition at 10 µM (AChE from electric eel [5]): 48%
Ki [11]: 172 ± 73 nM

O=c1c2cc(Cl)ccc2oc2ccc(OCCCCCN3CCCCCC3)cc12 [Compound E342]
IC50 [6]: 1600 nM
IC50 [8]: 120 nM
Ki (hH3R): 100 nM

c1ccc(-c2cccc(OCCCCCCN3CCCCCC3)c2)cc1 [Compound 21]
inhibition at 1 µM (human MAO B): 43%
IC50 (BuChE from equine serum [3]; [13]): 870 nM
IC50 (AChE from electric eel [5]; AChE from electric eel, read-out: eeAChE IC50 Mean ± SEM): 3860 ± 80 nM
inhibition at 10 µM (AChE from electric eel [5]): > 50%
Ki [11]: 19 ± 5.5 nM

CC1CCN(CCCCCOc2ccc(-c3ccccc3)cc2)CC1 [Compound 3]
inhibition at 1 µM (human MAO B): 36%
IC50 (BuChE from equine serum [9]; read-out: eqBuChE IC50): 851 nM
IC50 (BuChE from equine serum [9]; [12]): 850 ± 20 nM
eeAChE % Inh. (AChE from electric eel [10]): (42% ± 1) ^i

— publication PMC8231170, “Biphenylalkoxyamine Derivatives–Histamine H3 Receptor Ligands with Butyrylcholinesterase Inhibitory Activity” (Molecules, 2021)
